Experimental findings from patent US7420062B2, “Hetaryl-substituted pyrazolidindione derivatives with pesticidal characteristics” (Bayer CropScience, AG, priority 2003, dated 2008) are described below.

For series [1], the system named is Lolium. Briefly: Herbicidal pre-emergence action, greenhouse. Type of series: in vivo. The conditions noted are these: 1000 g a.i./ha, visual assessment after 2 to 3 weeks, 100% = plants have died. An excerpt: (§1) 1. Herbicidal Pre-emergence Action Seeds of monocotyledonous and dicotyledonous weed and crop plants are placed into sandy loam and covered with soil. The test compounds, formulated in the form of emulsion concentrates (EC), are, in various dosages with a water application rate of 800 l/ha (converted), with wetting agent added, applied to the surface of the covering soil. After the treatment, the pots are placed in a greenhouse and kept under good growth conditions for the test plants. The visual assessment of the emergence damage on the test plants is carried out after a trial period of 2 to 3 weeks by comparison with untreated controls (herbicidal effect in percent (%): 100% effect=the plants have died, 0% effect=like control plants).

For series [2], the system named is Setaria. The series can be described thus: Herbicidal pre-emergence action, greenhouse. Type of series: in vivo. The conditions noted are these: 1000 g a.i./ha, visual assessment after 2 to 3 weeks, 100% = plants have died.
Text: as §1

The test system of a further series is Echinoclora. Briefly: Herbicidal post-emergence action, greenhouse. Type of series: in vivo. The conditions noted are these: 1000 g a.i./ha, rated visually after 2 weeks, 100% = plants have died. How it is done: (§2) 2. Herbicidal Post-emergence Action Seeds of monocotyledonous and dicotyledonous weed and crop plants are placed into sandy loam, covered with soil and cultivated in a greenhouse under good growth conditions. About 2 weeks after sowing, the test plants are treated at the one-leaf stage. The test compounds, formulated as emulsion concentrates (EC), are, in various dosages with a water application rate of 800 l/ha (converted), with wetting agents added, sprayed onto the green parts of the plants. After the test plants have, been kept in the greenhouse under optimum growth conditions for 2 weeks, the effect of the preparations is rated visually in comparison to untreated controls (herbicidal effect in percent (%): 100% effect=the plants have died, 0% effect=like control plants).

Series [3] deals with Lolium. The series can be described thus: Herbicidal post-emergence action, greenhouse. In kind it is in vivo. As to conditions: 1000 g a.i./ha, rated visually after 2 weeks, 100% = plants have died. How it is done:
as §2

The subject of series [4] is Setaria. Briefly: Herbicidal post-emergence action, greenhouse. Type of series: in vivo. As to conditions: 1000 g a.i./ha, rated visually after 2 weeks, 100% = plants have died. How it is done:
as §2

Series [5] has as its system green peach aphid (Myzus persicae). The series can be described thus: Myzus test (spray treatment). In kind it is in vivo. The conditions noted are these: 100 g/ha, spray treatment of Chinese cabbage discs. How it is done: Myzus Test—(Spray Treatment) Solvents: 78 parts by weight of acetone 1.5 parts by weight of dimethylformamide Emulsifier: 0.5 part by weight of alkylaryl polyglycol ether To produce a suitable preparation of active compound, 1 part by weight of active compound is mixed with the stated amount of solvents and the stated amount of emulsifier, and the concentrate is diluted with emulsifier-containing water to the desired concentration. Discs of Chinese cabbage (Brassica pekinensis) which are infested by all stages of the green peach aphid (Myzus persicae) are sprayed with a preparation of active compound of the desired concentration. After the desired period of time, the effect in % is determined. 100% means that all aphids have been killed; 0% means that none of the aphids have been killed.

Molecule `Cc1scnc1-c1c(O)n2n(c1=O)CCCC2` (single isomer, unassigned) [Example I-3-b-2] displayed a melting point of 86 °C.
Same read-out and setting: for `Cc1scnc1-c1c(O)n2n(c1=O)CCCC2` (single isomer, unassigned) [Example I-3-b-3] the value was 182 °C.
On to `CCCc1cc(-c2ccc(Cl)cc2)nn1-c1c(O)n2n(c1=O)CCCC2` [Example I-3-a-1], for which the “herbicidal effect in percent, Lolium” value is reported as 100% with Lolium [1] and 90% in the series on Lolium [3]. Besides, the “herbicidal effect in percent, Setaria” value in the series on Setaria [2] and with Setaria [4] was 100% in each case. Also, the “herbicidal effect in percent, Echinoclora” value in the series with Echinoclora stood at 100%. The “Kill rate in % after 5 d” value in series [5] amounted to 100%.

Usually melting point stands for the temperature of the solid-liquid transition.
